Data published in patent publication US4910225A, “Locally administrable therapeutic composition for inflammatory disease” (Senju Pharmaceutical Co., Ltd., priority 1988, dated 1990).

Legend:
[1] = test system: experimental ophthalmitis induced by bovine serum albumin in white rabbits (ophthalmitis II); experiment: Ophthalmitis II: protein, white blood cell count and prostaglandins in anterior chamber aqueous humor; format: in vivo; settings: for Prostaglandin in anterior chamber aqueous humor: less than the assay limit; for White Blood Cell count in anterior chamber aqueous humor: mean ± SE
Method: (§1) Seventeen male white rabbits weighing about 2 kg were used. They were fed with 80 g of Labo RG-RO (Nippon Agricultural Co., Ltd.) daily and had free access to tap water.
(§2) After 28 days when ophthalmitis I had nearly recovered, 2.5% BSA solution was administered in a dose of 25 mg/ml/kg into the auricular vein to cause ophthalmitis (ophthalmitis II). The severity of ophthalmitis was rated according to the rating scale^(1) of Yamauchi et al., based on the Draize method in which an increased weight given to the internal segment of the eye. Observation was made with a frequency of once in one or two days during the peak period of inflammation and once in three or four days before and after the peak period for ophthalmitis I and 3, 6, 12 and 24 hours after intravenous injection of BSA for ophthalmitis II.
(§3) Gross observation was made on the day after injection of BSA into the vitreous body and with the animals arranged in the decreasing order of severity of ocular inflammation, grouping was carried out in such a manner that the intensity distribution would be uniform over the groups. Thus, a physiological saline group of 7 animals, a 0.1% Compound [I] instillation group of 4 animals and a 0.5% Compound [I] instillation group of 5 animals were provided. After this grouping procedure, the test drugs and saline were respectively instilled into both eyes of the rabbits, 50 μl per dose, 4 times a day. For induction of ophthalmitis II, each drug was instilled into both eyes, 50 μl per dose, immediately after injection of BSA into the auricular vein and at 1-hour intervals thereafter, for a total of 14 times.

[2] = test system: experimental ophthalmitis induced by bovine serum albumin in white rabbits (ophthalmitis I); experiment: Anti-inflammatory effect in ophthalmitis I (bovine serum albumin injected into the vitreous), gross severity scores; format: in vivo; settings: for Anterior chamber opacity, degree of inhibition relative to physiological saline group / Balbar conjunctival injection, degree of inhibition relative to physiological saline group / Corneal opacity, degree of inhibition relative to physiological saline group / Discharge, degree of inhibition relative to physiological saline group / External + Internal Grand Total Score, degree of inhibition relative to physiological saline group / External Segment Total Score, degree of inhibition relative to physiological saline group / Internal Segment Total Score, degree of inhibition relative to physiological saline group / Iridic injection, degree of inhibition relative to physiological saline group / Morphological change of iris, degree of inhibition relative to physiological saline group / Palpebral conjunctival edema, degree of inhibition relative to physiological saline group / Palpebral conjunctival injection, degree of inhibition relative to physiological saline group / Anterior chamber opacity score (Internal Segment) / Balbar conjunctival injection score (External Segment) / Corneal opacity score (External Segment) / Discharge score (External Segment) / External + Internal Grand Total Score / External Segment Total Score / Internal Segment Total Score / Iridic injection score (Internal Segment) / Morphological change of iris score (Internal Segment) / Palpebral conjunctival edema score (External Segment) / Palpebral conjunctival injection score (External Segment): ophthalmitis I; for Anterior chamber opacity score (Internal Segment) / Balbar conjunctival injection score (External Segment) / Corneal opacity score (External Segment) / Discharge score (External Segment) / External + Internal Grand Total Score / External Segment Total Score / Internal Segment Total Score / Iridic injection score (Internal Segment) / Morphological change of iris score (Internal Segment) / Palpebral conjunctival edema score (External Segment) / Palpebral conjunctival injection score (External Segment): peak inflammatory period of 3 days, mean ± SE
Method: as §1, §2
^(1) Hideyasu Yamauchi, Makoto Ingu, Tadashi Iso and Kozo Uda: Anti-inflammatory effect of fluorometholone ophthalmic solution in experimental uveitis in rabbits, Folia Ophthalmologica Japonica, 24: 969-79 (1973).
as §3

[3] = test system: atropine-resistant miosis; experiment: Atropine-resistant miosis after paracentesis; format: in vivo, albino rabbits
Method: The solutions of the following formulas were used.
Totally 28 male albino rabbits (4 rabbits×7 groups) with a body weight of about 2 kg werr used. They had been confirmed, before the experiment, to have mydriatic response to 1% atropine for at least 4 hours.
50 μl each of 1% atropine solution was instilled into both eyes of the animals one hour before the 1st paracenthesis, in which approx. 0.2 ml/eye of aqueous humor (primary aqueous humor) was collected. Topical application of 50 μl each of the test drug solutions was conducted 30 min before the paracenthesis. Pupil diameter of each eye was measured with a slide caliper immediately before and 10 min after the paracenthesis. The 2nd paracenthesis was conducted 90 min after the 1st one, in which approx. 0.2 ml/eye of aqueous humor (secondary aqueous humor) was collected.

## Nc1c(CC(=O)[O-])cccc1C(=O)c1ccc(Br)cc1.O.[Na+] [Compound [I], Sodium 3-(4-bromobenzoyl)-2-aminophenylacetate monohydrate]
[1]; 0.1%
  Prostaglandin in anterior chamber aqueous humor: < 0.4 ng/mL
  White Blood Cell count in anterior chamber aqueous humor: 1489 ± 499 Cells/mm^3
[1]; 0.5%
  Prostaglandin in anterior chamber aqueous humor: < 0.4 ng/mL
  White Blood Cell count in anterior chamber aqueous humor: 1673 ± 277 Cells/mm^3
[2]; 0.1% and 0.5%
  Inhibition of ophthalmitis I for the external and the internal segment of the eye: potent and dose-dependent inhibition for both the external and the internal segment of the eye
[2]; 0.1%
  Anterior chamber opacity, degree of inhibition relative to physiological saline group: -20.0%
  Balbar conjunctival injection, degree of inhibition relative to physiological saline group: 30.8%
  Corneal opacity, degree of inhibition relative to physiological saline group: 60.0%
  Discharge, degree of inhibition relative to physiological saline group: 100%
  External + Internal Grand Total Score, degree of inhibition relative to physiological saline group: 41.8%
  External Segment Total Score, degree of inhibition relative to physiological saline group: 50.4%
  Internal Segment Total Score, degree of inhibition relative to physiological saline group: 32.6%
  Iridic injection, degree of inhibition relative to physiological saline group: 57.4%
  Morphological change of iris, degree of inhibition relative to physiological saline group: 34.1%
  Palpebral conjunctival edema, degree of inhibition relative to physiological saline group: 85.7%
  Palpebral conjunctival injection, degree of inhibition relative to physiological saline group: 65.8%
  Anterior chamber opacity score (Internal Segment): 3.6 ± 0.8
  Balbar conjunctival injection score (External Segment): 4.5 ± 0.6
  Corneal opacity score (External Segment): 1.0 ± 0.4
  Discharge score (External Segment): 0
  External + Internal Grand Total Score: 15.9 ± 1.8
  External Segment Total Score: 6.8 ± 1.0
  Internal Segment Total Score: 9.1 ± 1.0
  Iridic injection score (Internal Segment): 2.6 ± 0.2
  Morphological change of iris score (Internal Segment): 2.9 ± 0.4
  Palpebral conjunctival edema score (External Segment): 0.1 ± 0.1
  Palpebral conjunctival injection score (External Segment): 1.3 ± 0.2
[2]; 0.5%
  Anterior chamber opacity, degree of inhibition relative to physiological saline group: 33.3%
  Balbar conjunctival injection, degree of inhibition relative to physiological saline group: 74.5%
  Corneal opacity, degree of inhibition relative to physiological saline group: 48.0%
  Discharge, degree of inhibition relative to physiological saline group: 100%
  External + Internal Grand Total Score, degree of inhibition relative to physiological saline group: 63.0%
  External Segment Total Score, degree of inhibition relative to physiological saline group: 74.5%
  Internal Segment Total Score, degree of inhibition relative to physiological saline group: 51.1%
  Iridic injection, degree of inhibition relative to physiological saline group: 70.5%
  Morphological change of iris, degree of inhibition relative to physiological saline group: 34.1%
  Palpebral conjunctival edema, degree of inhibition relative to physiological saline group: 100%
  Palpebral conjunctival injection, degree of inhibition relative to physiological saline group: 36.8%
  Anterior chamber opacity score (Internal Segment): 2.0 ± 0.4
  Balbar conjunctival injection score (External Segment): 1.6 ± 0.2
  Corneal opacity score (External Segment): 0.4 ± 0.2
  Discharge score (External Segment): 0
  External + Internal Grand Total Score: 10.1 ± 1.0
  External Segment Total Score: 3.5 ± 0.4
  Internal Segment Total Score: 6.6 ± 0.8
  Iridic injection score (Internal Segment): 1.8 ± 0.2
  Morphological change of iris score (Internal Segment): 2.9 ± 0.4
  Palpebral conjunctival edema score (External Segment): 0
  Palpebral conjunctival injection score (External Segment): 1.5 ± 0.3
[3]; Compound [I] 0.0001-0.1%, indomethacin as high as 0.5%
  Inhibitory activity on miosis after paracentesis: dose-related inhibitory activity on miosis after paracentesis
[3]; content 0.0001%
  Inhibition (miosis): 9.2 ± 8.33%
[3]; content 0.0001%, 10 min after paracentesis
  Miosis: 21.5 ± 1.97%
